Experiments:
[1] = test system: type 1 human immunodeficiency virus; experiment: Antiviral activity on HIV-1 infected human cell model; assay type: cell-based; conditions: for Cell survival rate, % / Number of cells × 10^3/mL / CPE/syncytia (+): HIV-1 infected cells; for CPE/syncytia (+): four-plus system
[2] = test system: Herpes simplex virus, type 1, Lg strain; experiment: Anti-herpetic activity in the Vero cell culture; assay type: cell-based; conditions: for Optical density: MTT assay

Fullerene Poly(Aminocaproic Acid) of Formula C60(H3){NH(CH2)5COO—}3{NH3^+(CH2)5COOH}3 [Agent No. 1]
Cell survival rate, % ([1]; 0.5 mcg/mL): 18% | Number of cells × 10^3/mL ([1]; 0.5 mcg/mL): 33 × 10^3/mL | CPE/syncytia (+) ([1]; 0.5 mcg/mL): 4.0 (+) | Cell survival rate, % ([1]; 1.0 mcg/mL): 26% | Number of cells × 10^3/mL ([1]; 1.0 mcg/mL): 495 × 10^3/mL | CPE/syncytia (+) ([1]; 1.0 mcg/mL): 4.0 (+) | Cell survival rate, % ([1]; 5.0 mcg/mL): 98% | Number of cells × 10^3/mL ([1]; 5.0 mcg/mL): 633 × 10^3/mL | CPE/syncytia (+) ([1]; 5.0 mcg/mL): 0 (+) | Cell survival rate, % ([1]; 10 mcg/mL): 98% | Number of cells × 10^3/mL ([1]; 10 mcg/mL): 600 × 10^3/mL | CPE/syncytia (+) ([1]; 10 mcg/mL): 0 (+) | EC50 (50% effective concentration) ([1]; type 1 human immunodeficiency virus): 0.9 µg/mL | protection of cells from the cytodestructive effect of the virus ([2]; 100 TCD50, agent 60 minutes prior to infecting, all concentrations from 5.0 mcg/mL and higher): completely protects | protection of cell culture from the cytodestructive effect of the virus ([2]; 1000 TCD50/0.2 mL, infected 60 minutes post inserting the agent): complete protection | Optical density ([2]; 100 TCD50, 5.0 mcg/mL): 1.110 ± 0.08 | Optical density ([2]; 100 TCD50, 10.0 mcg/mL): 1.015 ± 0.07 | Optical density ([2]; 100 TCD50, 50.0 mcg/mL): 1.153 ± 0.06 | Optical density ([2]; 100 TCD50, 100.0 mcg/mL): 1.79 ± 0.05 | Optical density ([2]; 1000 TCD50, 5.0 mcg/mL): 1.027 ± 0.04 | Optical density ([2]; 1000 TCD50, 10.0 mcg/mL): 1.021 ± 0.04 | Optical density ([2]; 1000 TCD50, 50.0 mcg/mL): 1.033 ± 0.03 | Optical density ([2]; 1000 TCD50, 100.0 mcg/mL): 1.083 ± 0.01
